From patent publication US10822664B2, “Sequence-specific detection and phenotype determination” (priority 2015, dated 2020) come the findings set out here.

In data set [1] the test system is E. coli 1289018, 1289023, 1289027, and 1289011. Put plainly: CRISPR/Cas9 cell-reporter AST assay. The data set is classed as cell-based. The source says: Enterobacteriaceae cell reporters as described in PCT/US2014/026536, Example 1 are designed with reporter plasmids that also carry single-guide[14] CRISPR/Cas9 systems with CRISPR loci that carry sequences targeting blaNDM-1 and blaSHV-18 genes (Table 1, SEQ ID NOs 11 & 13) a carbapenem resistance and extended β-lactam resistance gene, respectively. The reporter plasmid pGWP10001 is modified to include the cas9 gene, tracrRNA under the control of the PL(tetO-1) promoter, and a CRISPR cloning site, and CRISPR loci are designed to target the blaNDM-1 (SEQ ID NO 4) and blaSHV-18 (SEQ ID NO 5) genes and each are cloned into pGWP10001/CRISPR/Cas9 vectors to generate reporter plasmids that simultaneously target the blaNDM-1 and blaSHV-18 genes.
The vectors are used to generate non-replicative transduction particles carrying each plasmid and these are employed in a reporter system for determining the mechanism responsible to β-lactam non-susceptibility. Briefly, cultures of E. coli 1289018 (blaNDM-1, blaSHV-18-negative), 1289023 (blaNDM-1-positive), 1289027 (blaSHV-positive), and 1289011 (blaVIM-positive) are prepared and used to inoculate wells of a microwell plate containing 50 μL of LB with 50 μL of inoculum such that each well receives 10^4 CFU of each strain of bacteria. To these wells 100 μL of the following is added: a set of wells contain 5 μg/mL of meropenem and blaNDM-1-targetting NRTP, another set of wells contain 5 μg/mL of meropenem and blaSHV-18-NRTP, another set of wells contain 5 μg/mL of ceftazidime and blaNDM-1-targetting NRTP, and another set of wells contain 5 μg/mL of ceftazidime and blaSHV-18-NRTP. The samples are then incubated at 30° C. for 2 hours and then the samples are assayed for luminescence as described in Example 1.

In data set [2] the test system is E. coli 1289011, 1289012, 1289014, and 1289018. In words: AST meropenem/peptide-PNA disk diffusion testing. It is filed as cell-based. The note with it: for meropenem disk diffusion result: 10 μg meropenem disk, FIG. 4; for zone diameter compared to that of meropenem alone: 10 μg meropenem disk including peptide-PNA. Here is the method:
Disk diffusion testing is conducted following CLSI-M02 (12) and interpreted following M100-S22 (13). Briefly, for testing each bacterium for susceptibility to meropenem, a Mueller-Hinton agar (MHA) plates are inoculated using a sterile cotton swab dipped into a suspension of a culture of bacteria at a 0.5 McFarland standard such that the entire surface of the MHA is covered. A 10 μg meropenem disk is applied to the surface of the inoculated plate and the plate is incubated at 35° C. in ambient air for 16 to 18 hours. The strain of bacteria is determined to be susceptible to meropenem if the diameter of the zone of inhibition around the meropenem disk is ≥23 mm and resistant to meropenem if the zone diameter is ≤19 mm.
The second row of FIG. 4 depicts the typical meropenem disk diffusion results for the E. coli strains where 1289011, 1289012, and 1289014 are CRE and 1289018 is CSE.
To determine the specific mechanism linked to the meropenem-resistant phenotype, disk diffusion testing is conducted with 10 μg meropenem disks including blaKPC-3- and blaNDM-1-peptide-PNA. If the peptide-PNA inhibits the specific carbapenemase linked to the meropenem resistance in the E. coli strain, then the zone diameter observed will be […] when compared to the zone diameter of the strain when exposed to a disk containing only meropenem.
In general terms: In agar diffusion tests the substance spreads into inoculated agar from a disc or well.

Data set [3] shares this test system. In words: Peptide-PNA cell-reporter AST assay (Enterobacteriaceae reporter). It is filed as cell-based. Here is the method:
In this example, the AST technique described in Example 2 is extended to AST testing based on cell-reporter assays. An Enterobacteriaceae cell reporter as described in PCT/US2014/026536, Example 1 is employed and the assay is run as follows. Briefly, cultures of E. coli 1289011, 1289012, 1289014, and 1289018 are prepared and used to inoculate wells of a microwell plate containing 50 μL of LB with 50 μL of inoculum such that each well receives 10^4 CFU of each strain of bacteria. A set of wells contain no additional additives, another set of wells contain 5 μg/mL of meropenem, another set of wells contain 5 μg/mL of meropenem and blaKPC-3-peptide-PNA, another set of wells contain 5 μg/mL of meropenem and blaNDM-1-peptide-PNA, and another two set of wells contain only blaKPC-3 or blaNDM-1 peptide-PNA, respectively. All wells also receive 100 μL of the Enterobacteriaceae reporter. The samples are then incubated at 30° C. for 2 hours and then the samples are assayed for luminescence as described in Example 1.

For the next data set, the system named is Enterococcus spp. In words: VRE cell-reporter assay (Enterococcus reporter). It is filed as cell-based, E. faecalis, E. faecium, E. casseliflavus. The note with it: 5 μg/mL vancomycin, FIG. 7 column 2.
Data set [4] concerns E. coli. In words: Effect of murA PNA on growth (OD600) of E. coli. It is filed as cell-based. The note with it: murA PNA 4.5 μM in LB; OD600 over 8 hours; FIG. 1. Here is the method:
(§1) Isolates of E. coli and K. pneumoniae were grown overnight in LB at 37° C. and sub-cultured the next day at a 1:100 dilution into fresh LB and grown to an optical density at 600 nm (OD600) of 0.2. Inoculums of each strain of approximately 10^4 CFU of each species of bacteria were added to separate wells of a microplate each containing 50 μL of LB or LB with murA PNA at a final concentration of 4.5 μM. OD600 readings were measured over a period of 8 hours to assess growth of PNA-treated and PNA-untreated cells.

Data set [5] has as its system K. pneumoniae. Put plainly: Effect of murA PNA on growth (OD600) of K. pneumoniae. The note with it: murA PNA 4.5 μM in LB; OD600 over 8 hours; FIG. 2. The data set is classed as cell-based. Here is the method:
as §1

In data set [6] the test system is E. coli. In words: Enterobacteriaceae luminescent-reporter NRTP assay with murA PNA, E. coli. The note with it: murA PNA 4.5 μM, 30° C. for 2 hours, FIG. 3. It is filed as cell-based. Here is the method:
(§2) Isolates of E. coli and K. pneumoniae were grown overnight in LB at 37° C. and sub-cultured the next day at a 1:100 dilution into fresh LB and grown to an OD600 of 0.2. Inoculums of each strain of approximately 10^4 CFU of each species of bacteria were added to separate wells of a microplate each containing 50 μL of LB or LB with murA PNA at a final concentration of 4.5 μM. All wells subsequently received 100 uL of an Enterobacteriaceae luminescent-reporter non-replicative transduction particle as described in PCT/US2014/026536, Example 1 and the samples were incubated at 30° C. for 2 hours. After the incubation period, the plates were assayed for luminescence using a Molecular Devices SpectraMax L microplate luminometer in which a solution of tridecanal was injected into each well as luminescence readings were taken.

Data set [7] deals with K. pneumoniae. In words: Enterobacteriaceae luminescent-reporter NRTP assay with murA PNA, K. pneumoniae. The note with it: murA PNA 4.5 μM, 30° C. for 2 hours, FIG. 3. It is filed as cell-based. Here is the method:
as §2

[8] abbreviates: E. coli 1289018, 5 μg/mL β-lactam, regardless of which NRTP, FIG. 6 row 1.
Where [9] appears, read: E. coli 1289011, 5 μg/mL meropenem and peptide-PNA.
Setting [10] is: E. coli 1289012, 5 μg/mL meropenem and peptide-PNA.
The mark [11] stands for this setting: E. coli 1289014, 5 μg/mL meropenem and peptide-PNA.

Text for Enterococcus spp.: In this example an Enterococcus cell reporter is employed in combination with vancomycin and antisense molecules targeting vanC-2 gene expression. The assay allows for the detection of VRE and discrimination from vancomycin-sensitive Enterococcus (VSE) and Enterococcus expressing the vanC-2 gene and not the vanA or vanB genes. The Enterococcus reporter is designed to cause Enterococcus spp. to produce a detectable signal. A Peptide-PNA is designed to target vanC-2 transcripts.
Briefly, cultures of VSE E. faecalis 1259012, vanA-positive VRE E. faecalis 1259016, VSE E. faecium 1269011, vanB-positive VRE E. faecium 1269014, and vanC-2-positive vancomycin non-susceptible E. casseliflavus 1279015 are prepared and used to inoculate wells of a microwell plate containing 50 μL of LB with 50 μL of inoculum such that each well receives 10^4 CFU of each strain of bacteria. A set of wells contains no additional additives, another set of wells contains 5 μg/mL of vancomycin, and another set of wells contains 5 μg/mL of vancomycin and vanC-2-peptide-PNA. All wells also receive 100 μL of the Enterococcus reporter. The samples are then incubated at 37° C. for 2 hours and then the samples are assayed for luminescence as described in Example 1.

`CC(C)(O/N=C(\C(=O)N[C@@H]1C(=O)N2C(C(=O)[O-])=C(C[n+]3ccccc3)CS[C@H]12)c1csc(N)n1)C(=O)O` [ceftazidime]: the “inhibition in reporter assay” value in data set [1] (setting [8]) was “inhibited”.

As to `C[C@@H](O)[C@H]1C(=O)N2C(C(=O)O)=C(S[C@@H]3CN[C@H](C(=O)N(C)C)C3)[C@H](C)[C@H]12` [meropenem, reference compound], the “meropenem disk diffusion result” value was “CRE” in data set [2] (E. coli 1289011), “CRE” in data set [2] (E. coli 1289012), “CRE” in data set [2] (E. coli 1289014) and “CSE” in data set [2] (E. coli 1289018). Besides, the reporter assay signal entry in data set [3] (5 μg/mL meropenem, all E. coli strains except 1289018, FIG. 5 column 2) is recorded as “continue to give a positive signal”. For the same compound, the “inhibition in reporter assay” value was “inhibited” in data set [1] (setting [8]) and “inhibited” in data set [1] (E. coli 1289027 (blaSHV-positive), 5 μg/mL meropenem, FIG. 6 row 3).

On to `CN[C@H](CC(C)C)C(=O)N[C@H]1C(=O)N[C@@H](CC(N)=O)C(=O)N[C@H]2C(=O)N[C@H]3C(=O)N[C@H](C(=O)N[C@H](C(=O)O)c4cc(O)cc(O)c4-c4cc3ccc4O)[C@H](O)c3ccc(c(Cl)c3)Oc3cc2cc(c3O[C@@H]2O[C@H](CO)[C@@H](O)[C@H](O)[C@H]2O[C@H]2C[C@](C)(N)[C@H](O)[C@H](C)O2)Oc2ccc(cc2Cl)[C@H]1O` [vancomycin], for which the values for the reporter assay signal result with Enterococcus spp. (strains expressing a van gene) and with Enterococcus spp. (strains not carrying a van gene) were “continue to give a positive signal” and “do not”, respectively.

Regarding “KFFKFFKFFK-eg-ccatttagtt (CCATTTAGTT; all peptide nucleic acid (PNA); further chemistry not fully specified) [murA PNA]”, in the data set on E. coli [4], the “growth of E. coli” value is “compromised”. In addition, in the data set with K. pneumoniae [5], the “growth of K. pneumoniae” value is on record as “not compromised”. Moreover, the “luminescence signal produced by E. coli” value in the data set with E. coli [6] is recorded as “compromised”. Also, the “luminescence signal produced by K. pneumoniae” value with K. pneumoniae [7] is on record as “does not inhibit signal production”.

Turning to “blaKPC-3 peptide-PNA: PNA (SEQ ID NO 2) targeting the TIR of blaKPC-3, conjugated to the peptide KFFKFFKFFK (TCAACGATAT; all peptide nucleic acid (PNA); further chemistry not fully specified)”, the “zone diameter compared to that of meropenem alone” value is given as “not reduced” in data set [2] (E. coli 1289011), “reduced” in data set [2] (E. coli 1289012) and “not reduced” in data set [2] (E. coli 1289014). The figures for the reporter assay signal entry in data set [3] (setting [9]), in data set [3] (setting [10]) and in data set [3] (setting [11]) were “continues to produce a positive signal”, “no longer produces a positive signal” and “continues to produce a positive signal”, respectively.

On to “blaNDM-1 peptide-PNA: PNA (SEQ ID NO 3) targeting the TIR of blaNDM-1, conjugated to the peptide KFFKFFKFFK (TCAAGTTTTCC; all peptide nucleic acid (PNA); further chemistry not fully specified)”, for which the “zone diameter compared to that of meropenem alone” value in data set [2] (E. coli 1289011) is “not reduced”; in data set [2] (E. coli 1289012), “not reduced”; in data set [2] (E. coli 1289014), “reduced”. For the same compound, the values for the reporter assay signal result in data set [3] (setting [9]), in data set [3] (setting [10]) and in data set [3] (setting [11]) were “continues to produce a positive signal”, “continues to produce a positive signal” and “no longer produces a positive signal”, respectively.
